Measurements from ChEMBL document CHEMBL5303573, “Mapping human microbiome drug metabolism by gut bacteria and their genes” (Nature, 2019).

Assays:
[1] = The drug is tested on Bifidobacterium longum subsp. Infantis strain: CCUG52486 for biotransformation. The drug concentrations were measured before and after a 12-h incubation by liquid-chromatography-coupled mass spectrometry (LC–MS); conditions: 2 µM
[2] = The drug is tested on Alistipes indistinctus strain: DSM22520 for biotransformation. The drug concentrations were measured before and after a 12-h incubation by liquid-chromatography-coupled mass spectrometry (LC–MS); conditions: 2 µM
[3] = The drug is tested on Bacteroides dorei strain: DSM17855 for biotransformation. The drug concentrations were measured before and after a 12-h incubation by liquid-chromatography-coupled mass spectrometry (LC–MS); conditions: phocaeicola dorei, 2 µM
[4] = The drug is tested on Bacteroides fragilis strain: HMW610 for biotransformation. The drug concentrations were measured before and after a 12-h incubation by liquid-chromatography-coupled mass spectrometry (LC–MS); conditions: 2 µM
[5] = The drug is tested on Bacteroides pectinophilus strain: ATCC43243 for biotransformation. The drug concentrations were measured before and after a 12-h incubation by liquid-chromatography-coupled mass spectrometry (LC–MS); conditions: 2 µM
[6] = The drug is tested on Bacteroides vulgatus strain: ATCC8482 for biotransformation. The drug concentrations were measured before and after a 12-h incubation by liquid-chromatography-coupled mass spectrometry (LC–MS); conditions: phocaeicola vulgatus, 2 µM
[7] = The drug is tested on Parabacteroides merdae strain: ATCC43184 for biotransformation. The drug concentrations were measured before and after a 12-h incubation by liquid-chromatography-coupled mass spectrometry (LC–MS); conditions: 2 µM
[8] = The drug is tested on Blautia hansenii strain: DSM20583 for biotransformation. The drug concentrations were measured before and after a 12-h incubation by liquid-chromatography-coupled mass spectrometry (LC–MS); conditions: 2 µM
[9] = The drug is tested on Clostridium asparagiforme strain: DSM15981 for biotransformation. The drug concentrations were measured before and after a 12-h incubation by liquid-chromatography-coupled mass spectrometry (LC–MS); assay type: ADME; design: dose 2 uM, timepoint 0 vs 12 hours; conditions: enterocloster asparagiformis, 2 µM
[10] = The drug is tested on Clostridium ramosum strain: DSM1402 for biotransformation. The drug concentrations were measured before and after a 12-h incubation by liquid-chromatography-coupled mass spectrometry (LC–MS); conditions: thomasclavelia ramosa, 2 µM
[11] = The drug is tested on Clostridium symbiosum strain: ATCC14940 for biotransformation. The drug concentrations were measured before and after a 12-h incubation by liquid-chromatography-coupled mass spectrometry (LC–MS); conditions: 2 µM
[12] = The drug is tested on Eubacterium ventriosum strain: ATCC27560 for biotransformation. The drug concentrations were measured before and after a 12-h incubation by liquid-chromatography-coupled mass spectrometry (LC–MS); assay type: ADME; design: dose 2 uM, timepoint 0 vs 12 hours; conditions: 2 µM
[13] = The drug is tested on Ruminococcus torques strain: ATCC27756 for biotransformation. The drug concentrations were measured before and after a 12-h incubation by liquid-chromatography-coupled mass spectrometry (LC–MS); assay type: ADME; design: dose 2 uM, timepoint 0 vs 12 hours; conditions: 2 µM
[14] = The drug is tested on Enterobacter cancerogenus strain: ATCC35316 for biotransformation. The drug concentrations were measured before and after a 12-h incubation by liquid-chromatography-coupled mass spectrometry (LC–MS); conditions: 2 µM
[15] = The drug is tested on Escherichia coli strain: BW25113 for biotransformation. The drug concentrations were measured before and after a 12-h incubation by liquid-chromatography-coupled mass spectrometry (LC–MS); conditions: 2 µM
[16] = bacteroides fragilis, 12 h, 2 µM
Description: The drug is tested on Bacteroides fragilis strain: DS-208 for biotransformation. The drug concentrations were measured before and after a 12-h incubation by liquid-chromatography-coupled mass spectrometry (LC–MS)

[17] = bacteroides intestinalis, 12 h, 2 µM
Description: The drug is tested on Bacteroides intestinalis strain: DSM17393 for biotransformation. The drug concentrations were measured before and after a 12-h incubation by liquid-chromatography-coupled mass spectrometry (LC–MS)

[18] = bacteroides stercoris, 12 h, 2 µM
Description: The drug is tested on Bacteroides stercoris strain: ATCC43183 for biotransformation. The drug concentrations were measured before and after a 12-h incubation by liquid-chromatography-coupled mass spectrometry (LC–MS)

[19] = anaerostipes sp., 12 h, 2 µM
Description: The drug is tested on Anaerostipes sp. strain: fecal isolate for biotransformation. The drug concentrations were measured before and after a 12-h incubation by liquid-chromatography-coupled mass spectrometry (LC–MS)

[20] = enterocloster bolteae, 12 h, 2 µM
Description: The drug is tested on Clostridium bolteae strain: ATCCBAA-613 for biotransformation. The drug concentrations were measured before and after a 12-h incubation by liquid-chromatography-coupled mass spectrometry (LC–MS)

SMILES | Bacterial Biotransformation [1] | Bacterial Biotransformation [2] | Bacterial Biotransformation [3] | Bacterial Biotransformation [4] | Bacterial Biotransformation [5] | Bacterial Biotransformation [6] | Bacterial Biotransformation [7] | Bacterial Biotransformation [8] | Bacterial Biotransformation [9] | Bacterial Biotransformation [10] | Bacterial Biotransformation [11] | Bacterial Biotransformation [12] | Bacterial Biotransformation [13] | Bacterial Biotransformation [14] | Bacterial Biotransformation [15] | Bacterial Biotransformation [16] | Bacterial Biotransformation [17] | Bacterial Biotransformation [18] | Bacterial Biotransformation [19] | Bacterial Biotransformation [20]
CN1[C@@H]2CC[C@H]1C[C@@H](OC(=O)c1c[nH]c3ccccc13)C2 [TROPISETRON] | Compound NOT metabolized | Compound NOT metabolized | Compound NOT metabolized | Compound NOT metabolized | Compound NOT metabolized | Compound NOT metabolized | Compound NOT metabolized | Compound NOT metabolized | Compound NOT metabolized | Compound NOT metabolized | Compound NOT metabolized | Compound NOT metabolized | Compound NOT metabolized | Compound NOT metabolized | Compound NOT metabolized | Compound NOT metabolized | Compound NOT metabolized | Compound NOT metabolized | Compound NOT metabolized | Compound NOT metabolized
C[C@]12C=CC(=O)C=C1CC[C@@H]1[C@@H]2C(=O)C[C@@]2(C)[C@H]1CC[C@]2(O)C(=O)CO [PREDNISONE] | Compound NOT metabolized | Compound NOT metabolized | Compound NOT metabolized | Compound NOT metabolized | Compound NOT metabolized | Compound NOT metabolized | Compound NOT metabolized | Compound NOT metabolized | Compound NOT metabolized | Compound NOT metabolized | Compound NOT metabolized | Compound NOT metabolized | Compound NOT metabolized | Compound NOT metabolized | Compound NOT metabolized | Compound NOT metabolized | Compound NOT metabolized | – | Compound NOT metabolized | Compound NOT metabolized
CCOc1ccccc1OCCN[C@H](C)Cc1ccc(OC)c(S(N)(=O)=O)c1.Cl [TAMSULOSIN HYDROCHLORIDE] | Compound NOT metabolized | Compound NOT metabolized | Compound NOT metabolized | Compound NOT metabolized | Compound NOT metabolized | Compound NOT metabolized | Compound NOT metabolized | Compound NOT metabolized | Compound NOT metabolized | Compound NOT metabolized | Compound NOT metabolized | Compound NOT metabolized | Compound NOT metabolized | Compound NOT metabolized | Compound NOT metabolized | Compound NOT metabolized | Compound NOT metabolized | Compound NOT metabolized | Compound NOT metabolized | Compound NOT metabolized
O=C([O-])C[C@H](O)C[C@H](O)/C=C/c1c(C2CC2)nc2ccccc2c1-c1ccc(F)cc1.O=C([O-])C[C@H](O)C[C@H](O)/C=C/c1c(C2CC2)nc2ccccc2c1-c1ccc(F)cc1.[Ca+2] [PITAVASTATIN CALCIUM] | Compound NOT metabolized | Compound NOT metabolized | Compound NOT metabolized | Compound NOT metabolized | Compound NOT metabolized | Compound NOT metabolized | Compound NOT metabolized | Compound NOT metabolized | Compound NOT metabolized | Compound NOT metabolized | Compound NOT metabolized | Compound NOT metabolized | Compound NOT metabolized | Compound NOT metabolized | Compound NOT metabolized | Compound NOT metabolized | Compound NOT metabolized | Compound NOT metabolized | Compound NOT metabolized | Compound NOT metabolized
CCC(COC(=O)c1cc(OC)c(OC)c(OC)c1)(c1ccccc1)N(C)C.O=C(O)/C=C\C(=O)O (centres undefined) | Compound metabolized | Compound metabolized | Compound metabolized | Compound NOT metabolized | Compound metabolized | Compound NOT metabolized | Compound metabolized | Compound metabolized | Compound metabolized | Compound NOT metabolized | Compound metabolized | Compound metabolized | Compound metabolized | Compound metabolized | Compound metabolized | Compound NOT metabolized | Compound metabolized | Compound metabolized | Compound metabolized | Compound metabolized
CN(C/C=C/C#CC(C)(C)C)Cc1cccc2ccccc12 [TERBINAFINE] | Compound NOT metabolized | Compound NOT metabolized | Compound NOT metabolized | Compound NOT metabolized | Compound NOT metabolized | Compound NOT metabolized | Compound NOT metabolized | Compound NOT metabolized | Compound NOT metabolized | Compound NOT metabolized | Compound NOT metabolized | Compound NOT metabolized | Compound NOT metabolized | Compound NOT metabolized | Compound NOT metabolized | Compound NOT metabolized | Compound NOT metabolized | Compound NOT metabolized | Compound NOT metabolized | Compound NOT metabolized
CC(CN(C)C)CN1c2ccccc2CCc2ccccc21.O=C(O)/C=C\C(=O)O (centres undefined) [TRIMIPRAMINE MALEATE] | Compound NOT metabolized | Compound NOT metabolized | Compound NOT metabolized | Compound NOT metabolized | Compound NOT metabolized | Compound NOT metabolized | Compound NOT metabolized | Compound NOT metabolized | Compound NOT metabolized | Compound NOT metabolized | Compound NOT metabolized | Compound NOT metabolized | Compound NOT metabolized | Compound NOT metabolized | Compound NOT metabolized | Compound NOT metabolized | Compound NOT metabolized | Compound NOT metabolized | Compound NOT metabolized | Compound NOT metabolized
